Reference: the NIST ThermoML archive (doi:10.1016/j.jct.2017.07.040)

Assay: mn = molality of the nth substance listed, in mol/kg
Details: 101 kPa, Liquid; for viscosity: Capillary tube (Ostwald / Ubbelohde) method; for speed of sound: Frequency=6 MHz, Linear variable-path acoustic interferometer; for mass density: Vibrating tube method

CC1(C)S[C@@H]2[C@H](NC(=O)[C@H](N)c3ccccc3)C(=O)N2[C@H]1C(=O)[O-].[Na+] [Ampicillin Sodium] + O
Details	mass density [kg/m3]	speed of sound [m/s]	viscosity [mPa·s]
293.15 K, m1 = 0.035	1002.84	1487.5	1.034
293.15 K, m1 = 0.055	1005.4	1492	1.072
293.15 K, m1 = 0.075	1007.9	1496.1	1.109
293.15 K, m1 = 0.095	1010.54	1501.3	1.113
298.15 K, m1 = 0.035	1001.64	1501.6	0.9268
298.15 K, m1 = 0.055	1004.16	1505.6	0.9663
298.15 K, m1 = 0.075	1006.66	1509.6	1.008
298.15 K, m1 = 0.095	1009.25	1515	1.05
303.15 K, m1 = 0.035	1000.19	1514	0.8381
303.15 K, m1 = 0.055	1002.69	1518.1	0.8814
303.15 K, m1 = 0.075	1005.1	1522.1	0.9262
303.15 K, m1 = 0.095	1007.7	1526	0.9736
308.15 K, m1 = 0.035	998.531	1524.7	0.7612
308.15 K, m1 = 0.055	1001.01	1529	0.8077
308.15 K, m1 = 0.075	1003.04	1533	0.8543
308.15 K, m1 = 0.095	1005.84	1535.7	0.9016
313.15 K, m1 = 0.035	996.661	1533.8	0.6978
313.15 K, m1 = 0.055	999.128	1538	0.748
313.15 K, m1 = 0.075	1000.49	1542.5	0.7967
313.15 K, m1 = 0.095	1003.74	1546.1	0.8021

N[C@@H](Cc1c[nH]cn1)C(=O)O [L-histidine] + O
Details	mass density [kg/m3]	speed of sound [m/s]	viscosity [mPa·s]
293.15 K, m1 = 0.01	998.806	1483.9	1.009
293.15 K, m1 = 0.03	999.974	1485.7	1.016
293.15 K, m1 = 0.05	1001.14	1487.5	1.022
293.15 K, m1 = 0.07	1002.32	1489.3	1.028
293.15 K, m1 = 0.09	1003.5	1491.1	1.034
293.15 K, m1 = 0.11	1004.68	1492.8	1.04
298.15 K, m1 = 0.01	997.635	1498.2	0.8956
298.15 K, m1 = 0.03	998.775	1500	0.9014
298.15 K, m1 = 0.05	999.914	1501.7	0.9061
298.15 K, m1 = 0.07	1001.05	1503.2	0.9107
298.15 K, m1 = 0.09	1002.19	1505	0.9156
298.15 K, m1 = 0.11	1003.33	1506.9	0.9197
303.15 K, m1 = 0.01	996.232	1510.3	0.8015
303.15 K, m1 = 0.03	997.346	1512	0.8061
303.15 K, m1 = 0.05	998.458	1513.7	0.8103
303.15 K, m1 = 0.07	999.567	1515.4	0.8143
303.15 K, m1 = 0.09	1000.68	1517	0.8178
303.15 K, m1 = 0.11	1001.79	1518.7	0.8217
308.15 K, m1 = 0.01	994.608	1521	0.7223
308.15 K, m1 = 0.03	995.696	1522.7	0.7259
308.15 K, m1 = 0.05	996.785	1524.3	0.7292
308.15 K, m1 = 0.07	997.874	1525.9	0.7323
308.15 K, m1 = 0.09	998.961	1527.5	0.7356
308.15 K, m1 = 0.11	1000.05	1529.1	0.7389
313.15 K, m1 = 0.01	992.782	1530.1	0.6553
313.15 K, m1 = 0.03	993.848	1531.7	0.6584
313.15 K, m1 = 0.05	994.918	1533.2	0.6613
313.15 K, m1 = 0.07	995.988	1534.8	0.6638
313.15 K, m1 = 0.09	997.06	1536.3	0.6669
313.15 K, m1 = 0.11	998.13	1537.8	0.6692

O [water] + CC1(C)S[C@@H]2[C@H](NC(=O)[C@H](N)c3ccccc3)C(=O)N2[C@H]1C(=O)[O-].[Na+]
m2 = 0
Details	mass density [kg/m3]	speed of sound [m/s]	viscosity [mPa·s]
293.15 K	–	–	1.002
298.15 K	–	–	0.8903
303.15 K	–	–	0.7973
308.15 K	994.063	–	0.719
313.15 K	–	1529.3	0.6526

O [water] + N[C@@H](Cc1c[nH]cn1)C(=O)O
m2 = 0
Details	mass density [kg/m3]	speed of sound [m/s]	viscosity [mPa·s]
293.15 K	–	–	1.002
298.15 K	–	–	0.8903
303.15 K	–	–	0.7973
308.15 K	994.063	–	0.719
313.15 K	–	1529.3	0.6526
